Data set [1] has as its target β-hydroxybutyrate dehydrogenase (Paucimonas lemoignei, UniProt A0A4R3I0R9). Briefly: Metabolic stability using D-β-hydroxybutyrate dehydrogenase (NADH formation, Km/Vmax). As to conditions: Pseudomonas lemoignei, pH 7.8. Here is the method: (§1) Materials: β-Hydroxybutyrate Dehydrogenase from Pseudomonas lemoignei, nicotinamide adenine dinucleotide sodium salt (NAD), β-nicotinamide adenine dinucleotide, reduced dipotassium salt (NADH) and Trizma Base were purchased from Sigma-Aldrich.
(§2) Determination of Metabolic Stability of Compounds of the Invention Using D-β-hydroxybutyrate Dehydrogenase: 100 mM Tris pH 7.8 was prepared for assessing catalytic activity and as diluent to form corresponding solutions. Enzyme solution was prepared by dissolving lyophilized β-hydroxybutyrate dehydrogenase from Pseudomonas lemoignei in 100 mM Tris pH 7.8 to a final concentration of 200 Units/mL. The enzyme working stock solution (2 Units/mL) was prepared by dilution of stock solution (200 Units/mL) with 100 mM Tris pH 7.8 buffer. 30 mM NAD stock solution was prepared by dissolving NAD in 100 mM Tris pH 7.8 buffer. […] Working stock solutions of test compounds were prepared over the concentration range of 1 to 40 mM by appropriate dilutions in 100 mM Tris pH 7.8 buffer. 10 mM analytical standard stock solution were prepared by dissolving NADH in 100 mM Tris pH 7.8. Analytical standards were prepared over the concentration range of 0.05 to 1.5 mM by appropriate dilutions in 100 mM Tris pH 7.8. Enzymatic assays were conducted by aliquoting 40 μL of working test compound stock solution, 6 μL of enzyme working stock solution, 178 μL 100 mM Tris pH 7.8 into 96-well white clear bottom plates. The enzymatic assay was initiated by adding 16 μL of 30 mM NAD. The reaction was incubated at 37° C. The progress of each reaction was monitored over 15 minutes by measuring absorbance at […] of all wells every minute using a Perkin Elmer Enspire Multimode plate reader. Blank wells were prepared to subtract background. NADH formation was quantified using NADH analytical standard curve on same 96-well plate used to monitor enzyme activity. All reactions were conducted in triplicate.
(§3) The activity was determined by monitoring the rate of conversion of NAD to NADH by change in absorbance at 340 nm. The appropriate background was subtracted for each concentration and compound investigated and NADH concentration formed was calculated using NADH standard curve. The initial rates (v) for NADH formation as a function of initial test compound concentration (C) to derive Km and Vmax values by non-linear regression using Michaelis-Menten equation using GraphPad Prism 7 for Windows (version 7.03).
(§4) Difference between Vmax, Km and catalytic efficiency (Vmax/Km) for each compound was assessed using unpaired t-test with statistical significance using Holm-Sidak method with α=0.05. The unpaired t-test values were calculated using GraphPad Prism 7 for Windows (version 7.03).
(§5) Intrinsic clearance (CLint) and half-life (t1/2) values were calculated for each test compound using the following equations.

The target in data set [2] is β-hydroxybutyrate dehydrogenase from Pseudomonas lemoignei (Paucimonas lemoignei, UniProt A0A4R3I0R9). The data set is described as above. Particulars: for CLint Ratio (NCE/PCE): NCE = Compound 100, 102 or 202, PCE = protio DBHB; for T1/2 Δ (%): [(deuterated species)-(nondeuterated species)](100)/(nondeuterated species); for ^DV: deuterium isotope effect on Vmax versus D-β-hydroxybutyric acid; for ^D(V/K): deuterium isotope effect on Vmax/Km versus D-β-hydroxybutyric acid; for CLint: intrinsic clearance calculated from Vmax and Km; for half-life: b-hydroxybutyrate dehydrogenase, pH 7.8; for Vmax: compound as substrate, NADH formation, Michaelis-Menten non-linear regression, 100 mM Tris pH 7.8. As for the experimental part:
as §1, §2, §3, §4, §5

Where [3] appears, read: using Vmax/Km to predict clearance, vs D-β-hydroxybutyric acid, 0.167 mM to 6.7 mM.
Where [4] appears, read: vs D-β-hydroxybutyric acid, D-β-Hydroxybutyrate Dehydrogenase Assay.

Consider 4 molecules from patent publication US20210008018A1, “DEUTERATED ANALOGS OF D-BETA-HYDROXYBUTYRIC ACID AND USES THEREOF” (Concert Pharmaceuticals, Inc., priority 2018, published 2021).

Sequence of β-hydroxybutyrate dehydrogenase from Pseudomonas lemoignei (A0A4R3I0R9 entry or part of it): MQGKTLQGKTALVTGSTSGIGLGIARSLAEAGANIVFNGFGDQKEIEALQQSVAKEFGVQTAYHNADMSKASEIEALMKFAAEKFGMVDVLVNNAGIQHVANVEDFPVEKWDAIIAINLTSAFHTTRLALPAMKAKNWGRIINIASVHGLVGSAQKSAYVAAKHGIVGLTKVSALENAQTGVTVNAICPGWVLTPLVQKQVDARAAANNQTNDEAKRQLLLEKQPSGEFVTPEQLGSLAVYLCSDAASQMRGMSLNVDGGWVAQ
Sequence of β-hydroxybutyrate dehydrogenase (A0A4R3I0R9 entry or part of it): as above

Take `[2H][C@](C)(O)CC(=O)O` [Compound 100, (R)-3-Hydroxybutanoic-3-d1 Acid]: the half-life in data set [1] was 36.4 min. In data set [2], the “CLint Ratio (NCE/PCE)” value was 0.7, the “T1/2 Δ (%)” value is 40.2%, the “^DV” value amounted to 1.1 and the “^D(V/K)” value is reported as 1.4. Further, the CLint in data set [2] is on record as 0.0190 mL/min. For the same molecule, the “clearance predicted to be reduced by, compared to D-β-hydroxybutyric acid” value in data set [2] (setting [3]) is recorded as 30%. Besides, the “increase in half-life (T1/2)” value in data set [2] (setting [4]) worked out at 40%.
The Vmax is the top rate of the reaction or transport when substrate is in excess. Consider `[2H]C([2H])([2H])[C@@H](O)CC(=O)O` [Compound 202, (R)-3-hydroxybutanoic-4,4,4-d3 Acid], for which, in data set [2], the “CLint Ratio (NCE/PCE)” value is recorded as 2.0, the “T1/2 Δ (%)” value is recorded as −48.7%, the half-life stood at 13.3 min and the “^DV” value is given as 0.7. In data set [2], the “^D(V/K)” value is given as 0.5 and the CLint is 0.0520 mL/min. Also, the Vmax in data set [2] (0.167 mM to 6.7 mM) came to 0.0330 µmol/mL/min. Further, the “clearance predicted to be increased by, compared to D-β-hydroxybutyric acid” value in data set [2] (setting [3]) was 100%. Also, the “decrease in half-life (T1/2)” value in data set [2] (setting [4]) is recorded as approximately 49%.
On to `C[C@@H](O)CC(=O)O` [DBHB, D-β-hydroxybutyric acid, reference compound], for which, in data set [1], the half-life was determined as 26 min. For the same molecule, the CLint in data set [2] is on record as 0.0267 mL/min.
With `[2H]C([2H])([2H])[C@@]([2H])(O)CC(=O)O` [Compound 102, (R)-3-hydroxybutanoic-3,4,4,4-d4 Acid], in data set [2], the “CLint Ratio (NCE/PCE)” value was 0.5, the “T1/2 Δ (%)” value amounted to 114%, the half-life is 55.7 min and the “^DV” value amounted to 1.0. In data set [2], the “^D(V/K)” value turned out to be 2.1 and the CLint is 0.0125 mL/min. The Vmax in data set [2] (0.167 mM to 6.7 mM) amounted to 0.0213 µmol/mL/min. Further, the “clearance predicted to be reduced by, compared to D-β-hydroxybutyric acid” value in data set [2] (setting [3]) was 50%. The “increase in half-life (T1/2)” value in data set [2] (setting [4]) is reported as 114%.
